Counter-ions that a name gives are not always drawn. Like-named read-outs stand apart in the source and are kept apart here.

Data on four molecules can be found in EP0597303A2, “Cephalosporin derivatives” (priority 1992, dated 1994).

Common to all, as to assay: MIC, Agar (Mueller Hinton) Dilution Method
Holding throughout (type): cell-based

One test deals with Staph. aureus 3037B. To be noted: Staphylococcus aureus. In a few lines:
(§1)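 Read-out: minimum inhibitory concentration (micrograms/ml), obtained in vitro with the Mueller Hinton agar dilution technique on mixed Gram-positive/Gram-negative organisms.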

The subject of the next test is Ser. marcescens MA. The settings on record: Serratia marcescens, Gram Negative. In a few lines:
as §1

In a further test the test system is Str. pneumoniae 6302. The settings on record: Streptococcus pneumoniae, Gram Positive and Others. An outline of the steps: as §1
[1] abbreviates: Staph. aureus 3037B, Gram Positive and Others, read-out: MIC.

Turning to `O=C(Cc1cccs1)N[C@@H]1C(=O)N2C(C(=O)O)=C(COC(=O)N3CCN(c4c(F)cc5c(=O)c(C(=O)O)cn(C6CC6)c5c4F)CC3)CS[C@H]12` [Formula Ia, [6R,7R]-3-[[[[4-(3-Carboxy-1-cyclopropyl-6,8-difluoro-1,4-dihydro-4-oxo-7-quinolinyl)-1-piperazinyl]carbonyl]-oxy]-methyl]-8-oxo-7-[(2-thienylacetyl)amino]-5-thia-1-azabicyclo-[4.2.0]oct-2-ene-2-carboxylic acid], the MIC came out at 1 µg/mL in the test on Staph. aureus 3037B (setting [1]) and 16 µg/mL against Ser. marcescens MA.

On to `N#CCC(=O)N[C@@H]1C(=O)N2C(C(=O)O)=C(COC(=O)NC3CCN(c4c(F)cc5c(=O)c(C(=O)O)cn(C6CC6)c5c4F)C3)CS[C@H]12` (stereo partly shown) [Formula Ib, [6R,7R]-3-[[[[[1-(3-Carboxy-1-cyclopropyl-6,8-difluoro-1,4-dihydro-4-oxo-7-quinolinyl-3-[R,S]-pyrrolidinyl]-amino]carbonyl]oxy]methyl]-7-[(cyanoacetyl)amino]-8-oxo-5-thia-1-azabicyclo[4.2.0]oct-2-ene-2-carboxyiic acid monosodium salt], for which the MIC in the test on Staph. aureus 3037B (setting [1]) was 0.25 µg/mL; against Ser. marcescens MA, 4 µg/mL.

As to `N#CCC(=O)N[C@@H]1C(=O)N2C(C(=O)O)=C(COC(=O)N[C@H]3CCN(c4c(F)cc5c(=O)c(C(=O)O)cn(C6CC6)c5c4F)C3)CS[C@H]12` [Formula Iba, [6R-[3(S^*), 6 alpha, 7 beta]]-3-[[[[[1-(3-Carboxy-1-cyclopropyl-6,8-difluoro-1,4-dihydro-4-oxo-7-quinolinyl-3-pyrrolidinyl]-amino]carbonyl]oxy]methyl]-7-[(cyanoacetyl)amino]-8-oxo-5-thia 1-azabicyclo[4.2.0]oct-2-ene-2-carboxylic acid monosodium salt], the MIC in the test on Staph. aureus 3037B (setting [1]) was determined as 0.0625 µg/mL; in the test on Ser. marcescens MA, 4 µg/mL; in the test on Str. pneumoniae 6302, 0.0625 µg/mL.

For `N#CCC(=O)N[C@@H]1C(=O)N2C(C(=O)O)=C(COC(=O)N[C@@H]3CCN(c4c(F)cc5c(=O)c(C(=O)O)cn(C6CC6)c5c4F)C3)CS[C@H]12` [Formula Ibb, [6R-[3(R^*), 6 alpha, 7 beta]]-3-[[[[[1-(3-Carboxy-1-cyclopropyl-6,8-difluoro-1,4-dihydro-4-oxo-7-quinolinyl-3-pyrrolidinyi]amino]carbonyl]oxy]methyL]-7-[(cyanoacetyl)amino]-8-oxo-5-thia-1-azabicyclo[4.2.0]oct-2-ene-2-carboxylic acid monosodium salt], the MIC in the test on Staph. aureus 3037B (3037B) worked out at 0.125 µg/mL; against Ser. marcescens MA, 8 µg/mL; against Str. pneumoniae 6302 it was 0.0625 µg/mL.

As usually defined, the MIC is the least concentration at which growth counts as inhibited.
